Measured values reported in PubChem BioAssay (NCI).
Several values for one entry are separate records, joined by “and”; a condition that tells them apart may be missing. Equal values may be shown once.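 A five-concentration, 48-hour dose response in 96-well plates underlies each endpoint, interpolated linearly between surrounding concentrations. GI50: concentration for 50% inhibition of growth. At the TGI there is no net growth.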

Tests used:
Assay in all cases: inhibition of tumour cell growth, NCI panel, 48 h
HOP-92 NSCLC = test system: HOP-92 NSCLC
OVCAR-8 ovarian = test system: OVCAR-8 ovarian
NCI-H460 lung = test system: NCI-H460 lung
HCT-116 colon = test system: HCT-116 colon
NCI-H23 lung = test system: NCI-H23 lung
LOX IMVI melanoma = test system: LOX IMVI melanoma
SF-295 CNS = test system: SF-295 CNS
U251 CNS = test system: U251 CNS
RXF 393 renal = test system: RXF 393 renal
SK-OV-3 ovarian = test system: SK-OV-3 ovarian

SMILES	TGI (HOP-92 NSCLC)	TGI (OVCAR-8 ovarian)	TGI (NCI-H460 lung)	TGI (HCT-116 colon)	TGI (NCI-H23 lung)	TGI (LOX IMVI melanoma)	TGI (SF-295 CNS)	TGI (U251 CNS)	TGI (RXF 393 renal)	TGI (SK-OV-3 ovarian)	GI50 (HOP-92 NSCLC)	GI50 (OVCAR-8 ovarian)	GI50 (NCI-H460 lung)	GI50 (HCT-116 colon)	GI50 (NCI-H23 lung)	GI50 (LOX IMVI melanoma)	GI50 (SF-295 CNS)	GI50 (U251 CNS)	GI50 (RXF 393 renal)	GI50 (SK-OV-3 ovarian)
Cc1ccc(NC(c2ccccc2)c2ccc3cccnc3c2O)cc1 (stereo not given)	16 µM	11.1 µM	> 25 µM	13.8 µM	19.2 µM	16.4 µM	16.1 µM	10.9 µM	22.8 µM	23.8 µM	–	–	–	–	–	–	–	–	–	–
Cc1[nH]c(=O)[nH]c(=O)c1N(CCF)CCCl	329 µM and 466 µM and 363 µM	632 µM and 1020 µM and 1140 µM	689 µM and 834 µM and 633 µM	662 µM and 1570 µM and 1010 µM	635 µM and 2500 µM and 631 µM	726 µM and 671 µM and 787 µM	600 µM and > 25 µM and 1140 µM	693 µM and 1220 µM and 1200 µM	296 µM and 662 µM and 596 µM	741 µM and 1330 µM and 1240 µM	153 µM	210 µM and 388 µM and 217 µM	118 µM and 264 µM and 171 µM	243 µM and 491 µM	255 µM and 512 µM	236 µM and 290 µM and 139 µM	> 25 µM and 402 µM	212 µM	128 µM and 265 µM	332 µM and 472 µM
COc1ccc(C(=O)/C=C/c2ccc(O)c(O)c2F)c(OC)c1	75 µM and > 100 µM	65.5 µM and > 100 µM	13 µM and 15.9 µM	14 µM and 10 µM	12.6 µM and 32.1 µM	20.3 µM and 20.4 µM	26.3 µM and 34.4 µM	23.1 µM and 17.9 µM	26.4 µM and 32.1 µM	47 µM and 90.3 µM	36 µM	8.81 µM	–	2.66 µM	5.27 µM	4.95 µM	10.9 µM	4.12 µM	11.6 µM	17.6 µM
CCN(CC)CCCN(c1cc(OC)cc2nccnc12)S(=O)(=O)c1ccc(C)cc1	> 100 µM	> 100 µM	> 100 µM	–	> 100 µM	> 100 µM	> 100 µM	> 100 µM	> 100 µM	> 100 µM	–	–	–	–	–	–	–	–	–	–
CC(C)C[C@@H](NC(=O)[C@@H](Cc1ccccc1)NC(=O)c1cnccn1)B1O[C@H]2[C@H](O)[C@@H](C(=O)NCCCC[C@@H]3NC(=O)[C@@H](Cc4ccccc4)NC(=O)[C@H](CC(=O)O)NC(=O)CNC(=O)[C@H](CCCN=C(N)N)NC3=O)O[C@@H](CN)[C@H]2O1	0.0565 µM and 0.0236 µM	0.622 µM and 0.0987 µM	0.135 µM and 0.185 µM	0.0182 µM and 0.0103 µM	0.0943 µM and 0.0537 µM	0.0159 µM and 0.0058 µM	0.02 µM and 0.0147 µM	0.218 µM and 0.0431 µM	0.0135 µM and < 0.005 µM	0.296 µM and 0.941 µM	0.0108 µM and 0.00548 µM	0.0365 µM and 0.0139 µM	0.0344 µM and 0.0179 µM	0.00339 µM and 0.005 µM	0.0108 µM and 0.005 µM	0.00397 µM and 0.005 µM	0.00486 µM and 0.005 µM	0.0328 µM and 0.00592 µM	0.00345 µM and < 0.005 µM	0.0354 µM and 0.0148 µM
CN(C)CCCCN1CCc2c(n(C)c3ccccc23)C1=O	81.2 µM and > 90.7 µM	> 100 µM	> 87.1 µM and 49.8 µM	75.6 µM and 45.1 µM	> 100 µM	> 72.9 µM and 42.8 µM	71.9 µM and 49.6 µM	99.5 µM and > 60.1 µM	84.7 µM and > 90.5 µM	> 95 µM	–	–	54.6 µM and 24.2 µM	–	–	–	–	72.4 µM and 34.1 µM	–	–
COc1cccc(N2C(=O)c3c(c4[nH]c5ccccc5c4c4ccc(C(C)(C)C)cc34)C2=O)c1	> 100 µM	> 100 µM	> 100 µM	> 100 µM	> 100 µM	> 100 µM	> 100 µM	> 100 µM	> 100 µM	> 100 µM	–	–	–	–	–	–	–	–	–	–
CC(C)(C)NNC(=O)/C(=C/c1ccc(Oc2ccc(Cl)c(Cl)c2)cc1)NC(=O)c1ccccc1	> 100 µM	> 100 µM	> 100 µM	> 100 µM	> 100 µM	40.1 µM	> 100 µM	> 100 µM	> 100 µM	> 100 µM	–	–	–	–	–	–	–	–	–	–
COc1ccc(CN2C(=O)/C(=C\c3cc(OC)c(OC)c(OC)c3)c3cc(OC)ccc32)cc1	16.8 µM	> 23.9 µM	3.83 µM	3.05 µM	3.85 µM	2.67 µM	> 31.4 µM	2.67 µM	3.47 µM	13.1 µM	1.21 µM	2.32 µM	1.91 µM	1.63 µM	1.84 µM	1.35 µM	3.26 µM	1.38 µM	1.63 µM	3.12 µM
N#CC1=C(N)Oc2cc3c(cc2C1c1cccs1)OCO3 (stereo not given)	26.2 µM	> 52.7 µM	24.4 µM	> 62.3 µM	> 100 µM	> 61.3 µM	> 100 µM	31.9 µM	2.7 µM	8.1 µM	0.66 µM	0.587 µM	0.373 µM	0.407 µM	0.428 µM	0.679 µM	0.393 µM	0.397 µM	0.311 µM	0.575 µM
CCC1=C(C)/C(=C/c2[nH]c(C)c(C(=O)CCCCC(=O)OC)c2C)N=C1c1ccc[nH]1	15.4 µM	42.6 µM	> 100 µM	> 50.1 µM	55.5 µM	> 32.3 µM	42 µM	33.1 µM	38.6 µM	> 80.6 µM	3.95 µM	7.46 µM	37.6 µM	7.37 µM	17.3 µM	2.89 µM	18.6 µM	12.6 µM	11.9 µM	34.6 µM
CCn1c(=O)c(-c2ccn[nH]2)cc2c(C)nc(N)nc21	1.56 µM	61.7 µM	> 100 µM	> 100 µM	> 100 µM	14.4 µM	3.68 µM	> 100 µM	2.47 µM	3.4 µM	0.213 µM	2.51 µM	1.4 µM	2.36 µM	2.07 µM	1.73 µM	0.559 µM	3.75 µM	0.426 µM	0.698 µM
O=P(c1ccccc1)(c1ccccc1)C1CC=C(c2ccccc2)C2(CCCC2)C1 (stereo not given)	67.5 µM	> 100 µM	> 100 µM	> 100 µM	> 100 µM	> 100 µM	> 100 µM	> 100 µM	> 100 µM	> 100 µM	–	–	–	–	–	–	–	–	–	–
COc1ccc2[nH]cc(CCNC(C)=O)c2c1	> 100 µM	> 100 µM	> 100 µM	> 100 µM	> 100 µM	> 100 µM	> 100 µM	> 100 µM	> 100 µM	> 100 µM	–	–	–	–	–	–	–	–	–	–
Nc1ccccc1C#CC#Cc1ccccc1N	96.7 µM	> 100 µM	28.4 µM	24.8 µM	22 µM	19.4 µM	> 100 µM	21 µM	67.7 µM	> 100 µM	1.37 µM	28.7 µM	11.8 µM	6.02 µM	4.04 µM	6.78 µM	2.76 µM	8.53 µM	25.6 µM	58 µM
